Measurements taken from ChEMBL document CHEMBL1629609, “Phenotypic and enzymatic comparative analysis of the novel KPC variant KPC-5 and its evolutionary variants, KPC-2 and KPC-4” (Antimicrob Agents Chemother, 2009).
In brackets after ≈: the same amount, converted by molar mass.

Columns and labels:
Escherichia coli [1] = test: Metabolic stability in Escherichia coli TOP10 harboring beta-lactamase KPC-5 assessed as hydrolysis rate per mg of extracts at 100 uM after 5 mins by spectrophotometric analysis in presence of clavulanic acid; format: ADME, organism-based; conditions: in vivo
Escherichia coli [2] = test: Antibacterial activity against Escherichia coli TOP10 harboring beta-lactamase KPC-2 by agar dilution method; format: functional
Escherichia coli [3] = test: Metabolic stability in Escherichia coli TOP10 harboring beta-lactamase KPC-4 assessed as hydrolysis rate per mg of extracts at 100 uM after 5 mins by spectrophotometric analysis in presence of clavulanic acid; format: ADME, organism-based; conditions: in vivo
Escherichia coli [4] = test: Metabolic stability in Escherichia coli TOP10 harboring beta-lactamase KPC-2 assessed as hydrolysis rate per mg of extracts at 100 uM after 5 mins by spectrophotometric analysis in presence of clavulanic acid; format: ADME, organism-based; conditions: in vivo
Escherichia coli [5] = test: Antibacterial activity against Escherichia coli TOP10 by agar dilution method; format: functional
Escherichia coli [6] = test: Antibacterial activity against Escherichia coli TOP10 harboring beta-lactamase KPC-4 by agar dilution method; format: functional
Escherichia coli [7] = test: Metabolic stability in Escherichia coli TOP10 harboring beta-lactamase KPC-4 assessed as hydrolysis rate per mg of extracts at 100 uM after 5 mins by spectrophotometric analysis; format: ADME, organism-based; conditions: in vivo
Escherichia coli [8] = test: Metabolic stability in Escherichia coli TOP10 harboring beta-lactamase KPC-2 assessed as hydrolysis rate per mg of extracts at 100 uM after 5 mins by spectrophotometric analysis; format: ADME, organism-based; conditions: in vivo
Escherichia coli [9] = test: Antibacterial activity against Escherichia coli TOP10 harboring beta-lactamase KPC-5 by agar dilution method; format: functional
[10] = system: Enterobacter cancerogenus; test: Antibacterial activity against Enterobacter cancerogenus E624 harboring beta-lactamase KPC-4 by agar dilution method; format: functional
Escherichia coli [11] = test: Metabolic stability in Escherichia coli TOP10 harboring beta-lactamase KPC-5 assessed as hydrolysis rate per mg of extracts at 100 uM after 5 mins by spectrophotometric analysis; format: ADME, organism-based; conditions: in vivo
Escherichia coli [12] = test: Ratio of MIC for Escherichia coli TOP10 harboring beta-lactamase KPC-2 to MIC for Escherichia coli TOP10 harboring beta-lactamase KPC-5; format: functional
Escherichia coli [13] = test: Ratio of MIC for Escherichia coli TOP10 harboring beta-lactamase KPC-2 to MIC for Escherichia coli TOP10 harboring beta-lactamase KPC-4; format: functional
Escherichia coli [14] = test: Metabolic stability in Escherichia coli TOP10 harboring beta-lactamase KPC-5 assessed as hydrolysis rate per mg of extracts at 50 uM after 5 mins by spectrophotometric analysis; format: ADME, organism-based; conditions: in vivo
Escherichia coli [15] = test: Metabolic stability in Escherichia coli TOP10 harboring beta-lactamase KPC-2 assessed as hydrolysis rate per mg of extracts at 50 uM after 5 mins by spectrophotometric analysis; format: ADME, organism-based; conditions: in vivo
Escherichia coli [16] = test: Metabolic stability in Escherichia coli TOP10 harboring beta-lactamase KPC-4 assessed as hydrolysis rate per mg of extracts at 50 uM after 5 mins by spectrophotometric analysis; format: ADME, organism-based; conditions: in vivo
Pseudomonas aeruginosa [17] = test: Antibacterial activity against Pseudomonas aeruginosa PR100 harboring beta-lactamase KPC-2 by agar dilution method; format: functional
Pseudomonas aeruginosa [18] = test: Antibacterial activity against Pseudomonas aeruginosa PR280 harboring beta-lactamase KPC-5 by agar dilution method; format: functional
Escherichia coli [19] = test: Antibacterial activity against Escherichia coli TOP10 by agar dilution method in presence of clavulanic acid
Escherichia coli [20] = test: Antibacterial activity against Escherichia coli TOP10 harboring beta-lactamase KPC-4 by agar dilution method in presence of clavulanic acid; format: functional
Escherichia coli [21] = test: Antibacterial activity against Escherichia coli TOP10 harboring beta-lactamase KPC-2 by agar dilution method in presence of clavulanic acid; format: functional
Escherichia coli [22] = test: Antibacterial activity against Escherichia coli TOP10 harboring beta-lactamase KPC-5 by agar dilution method in presence of clavulanic acid
Escherichia coli [23] = test: Antibacterial activity against Escherichia coli TOP10 harboring beta-lactamase KPC-5 by agar dilution method in presence of Tazobactam; format: functional
Pseudomonas aeruginosa [24] = test: Antibacterial activity against Pseudomonas aeruginosa PR100 harboring beta-lactamase KPC-2 by agar dilution method in presence of Tazobactam; format: functional
Escherichia coli [25] = test: Antibacterial activity against Escherichia coli TOP10 by agar dilution method in presence of Tazobactam; format: functional
[26] = system: Enterobacter cancerogenus; test: Antibacterial activity against Enterobacter cancerogenus E624 harboring beta-lactamase KPC-4 by agar dilution method in presence of Tazobactam; format: functional
Pseudomonas aeruginosa [27] = test: Antibacterial activity against Pseudomonas aeruginosa PR280 harboring beta-lactamase KPC-5 by agar dilution method in presence of Tazobactam; format: functional
Escherichia coli [28] = test: Antibacterial activity against Escherichia coli TOP10 harboring beta-lactamase KPC-2 by agar dilution method in presence of Tazobactam; format: functional
Escherichia coli [29] = test: Antibacterial activity against Escherichia coli TOP10 harboring beta-lactamase KPC-4 by agar dilution method in presence of Tazobactam; format: functional

Structure (SMILES) | MIC (Escherichia coli [2]) [µg/mL] | MIC (Escherichia coli [5]) [µg/mL] | MIC (Escherichia coli [6]) [µg/mL] | Stability (Escherichia coli [7]) [nmol/min] | Stability (Escherichia coli [8]) [nmol/min] | MIC (Escherichia coli [9]) [µg/mL] | MIC [10] [µg/mL] | Stability (Escherichia coli [11]) [nmol/min] | further results
CO/N=C(\C(=O)N[C@@H]1C(=O)N2C(C(=O)O)=C(COC(C)=O)CS[C@H]12)c1csc(N)n1 [CEFOTAXIME] | 64 (≈ 141 µM) | < 0.06 | 64 (≈ 141 µM) | 172 | 1310 | 64 (≈ 141 µM) | > 64 | 368 | Stability (Escherichia coli [1]): 48 nmol/min; Stability (Escherichia coli [3]): 20 nmol/min; Stability (Escherichia coli [4]): 487 nmol/min
CO[C@@]1(NC(=O)Cc2cccs2)C(=O)N2C(C(=O)O)=C(COC(N)=O)CS[C@@H]21 [CEFOXITIN] | 32 (≈ 74.9 µM) | 4 (≈ 9.36 µM) | 8 (≈ 18.7 µM) |  |  | 16 (≈ 37.4 µM) | > 64 |  | Ratio (Escherichia coli [12]): 2; Ratio (Escherichia coli [13]): 4
CC(C)(O/N=C(\C(=O)N[C@@H]1C(=O)N2C(C(=O)[O-])=C(C[n+]3ccccc3)CS[C@H]12)c1csc(N)n1)C(=O)O [CEFTAZIDIME] | 32 (≈ 58.5 µM) | 0.12 (≈ 0.22 µM) | > 128 |  |  | 128 (≈ 234 µM) | > 64 |  | Ratio (Escherichia coli [13]): 8; Stability (Escherichia coli [14]): 6 nmol/min; Stability (Escherichia coli [15]): 3 nmol/min; Stability (Escherichia coli [16]): 7 nmol/min; MIC (Pseudomonas aeruginosa [17]): 64 µg/mL (≈ 117 µM); MIC (Pseudomonas aeruginosa [18]): 128 µg/mL (≈ 234 µM)
C[C@@H](O)[C@H]1C(=O)N2C(C(=O)O)=C(S[C@@H]3CN[C@H](C(=O)N(C)C)C3)[C@H](C)[C@H]12 [MEROPENEM] | 8 (≈ 20.9 µM) | < 0.06 | 1 (≈ 2.61 µM) |  |  |  | > 32 |  | 
C[C@@H](O)[C@H]1C(=O)N2C(C(=O)O)=C(SCCN=CN)C[C@H]12 [IMIPENEM ANHYDROUS] | 16 (≈ 53.4 µM) | 0.12 (≈ 0.401 µM) | 2 (≈ 6.68 µM) | 69 | 412 | 4 (≈ 13.4 µM) | > 32 | 116 | MIC (Escherichia coli [19]): 0.12 µg/mL; MIC (Escherichia coli [20]): < 0.06 µg/mL; MIC (Escherichia coli [21]): 4 µg/mL; MIC (Pseudomonas aeruginosa [17]): > 64 µg/mL; MIC (Escherichia coli [22]): 0.12 µg/mL; MIC (Pseudomonas aeruginosa [18]): > 64 µg/mL
C[C@H]1[C@H](NC(=O)/C(=N\OC(C)(C)C(=O)O)c2csc(N)n2)C(=O)N1S(=O)(=O)O [AZTREONAM] | > 128 | < 0.12 | > 128 |  |  | > 128 | > 64 |  | 
C[C@@H](O)[C@H]1C(=O)N2C(C(=O)O)=C(S[C@@H]3CN[C@H](C(=O)Nc4cccc(C(=O)O)c4)C3)[C@H](C)[C@H]12 | 16 (≈ 33.6 µM) | < 0.06 | 2 (≈ 4.21 µM) |  |  | 8 (≈ 16.8 µM) | > 16 |  | 
CO/N=C(\C(=O)N[C@@H]1C(=O)N2C(C(=O)[O-])=C(C[N+]3(C)CCCC3)CS[C@H]12)c1csc(N)n1 | 16 (≈ 33.3 µM) | < 0.06 | 8 (≈ 16.6 µM) |  |  |  | 64 (≈ 133 µM) |  | 
CCN1CCN(C(=O)N[C@@H](C(=O)N[C@@H]2C(=O)N3[C@@H]2SC(C)(C)[C@@H]3C(=O)O)c2ccccc2)C(=O)C1=O [PIPERACILLIN] |  |  |  |  |  |  |  |  | MIC (Escherichia coli [23]): > 256 µg/mL; MIC (Pseudomonas aeruginosa [24]): > 256 µg/mL; MIC (Escherichia coli [25]): 1 µg/mL; MIC [26]: > 64 µg/mL; MIC (Pseudomonas aeruginosa [27]): 128 µg/mL; MIC (Escherichia coli [28]): > 256 µg/mL; MIC (Escherichia coli [29]): 128 µg/mL
CC(=O)OCC1=C(C(=O)O)N2C(=O)[C@@H](NC(=O)Cc3cccs3)[C@H]2SC1 [CEPHALOTHIN] |  |  |  | 53 | 65 |  |  | 50 | Stability (Escherichia coli [1]): 7 nmol/min; Stability (Escherichia coli [3]): 6 nmol/min; Stability (Escherichia coli [4]): 25 nmol/min
